According to patent publication US4927837A, “Derivatives of 3-piperidine carbaldehyde oxime and their use as medicaments” (Roussel Uclaf, priority 1987, dated 1990):
Like-named read-outs stand apart in the source and are kept apart here.

How the values were obtained:
[1] = Variation in body temperature (duration of action); assay type: in vivo, mice
Experimental: (§1) The test is carried out on male mice (CD1 Charles Rivers) weighing 25 to 30 g, which have gone without food for 6 hours.
The body temperature is noted using a thermocouple placed about 1.5 cm inside the rectum, and connected to an electric temperature recorder. […]
The duration of action of the products is determined using doses capable of reducing the temperature by 1° to 1.5° C.

[2] = Hypothermic activity in mice; assay type: in vivo; settings: Mus musculus, male mice, read-out: Effective dose (-1° C.)
Experimental: as §1
The body temperature is noted using a thermocouple placed about 1.5 cm inside the rectum, and connected to an electric temperature recorder.
The products are administered by oral or subcutaneous route and the temperatures are noted at instant 0 and at 30 minutes, 1 hour, 2 hours and 21/2 hours after treatment.
The degree of hypothermia is evaluated as the difference between the treated animals and the control animals, and the dose necessary for reducing the body temperature by 1° C. is determined.

in vivo = settings: mouse, male mice, oral route, mortality noted for 7 days
Experimental: The test is carried out on male mice (CD1 Charles Rivers) of 22 to 24 g, which have gone without food for 16 hours.

[3] = Diarrheic activity in mice, oral route; settings: mouse, in vivo, male mice, read-out: DE50 (dose which causes diarrhea in 50% of the animals)
Experimental: The test is carried out on male mice (CD1 Charles Rivers) weighing 25 to 30 g, which have gone without food for 6 hours. The product, dissolved at 5% in methocel, is administered by oral route, using a probang.
The control animals receive only the excipient.
After treatment, the animals are put separately into cages, the bottoms of which are covered with blotting paper, and are put under observation for 30, 60, 120 and 180 minutes.
The absorbent sheets of paper are changed after each observation.
The consistency of the faeces is evaluated according to the Randall and Baruth method (Arch. Int. Pharmacodyn. 220, 94, 1976), according to the scale of the following values:
1: slightly moist faeces with or without halo of humidity,
2: slightly moist faeces with presence of well-defined circle of humidity,
3: moist faeces with presence of a large circle of humidity,
4: faeces without consistency with presence of a very large circle of humidity.
For each product, the dose which causes diarrhea in 50% of the animals is noted according to the method of Miller and Tainter (Proc. Soc. Exp. Biol. Med., 57, 261, 1944).

[4] = tested on: isolated ileum of guinea pigs; assay: Test on the isolated ileum of guinea pigs (agonistic activity); settings: Cavia porcellus; isolated guinea pig ileum, contraction, Tyrode's solution, 37° C.; read-out: pD2 (negative logarithm of the dose which produces 50% of the maximum effect) (converted)
Experimental: Fragments of the ileum of guinea pigs killed by decapitation are removed. The isolated ileum is placed in 10 cm^3 of Tyrode's solution at 37° C. and aerated by a mixture of oxygen (95%) and carbon dioxide gas (5%). The contractions due to the products are recorded with a detector linked to a polygraph. The products under test are added at concentrations between 1.10^-4 M and 1.10^-8 M/1.
The products showing a contracting effect are tested vis a vis atropine and hexamethonium in order to establish whether the activity is of "muscarine" or "nicotine" type.
The possible antagonistic activity of the products is tested vis a vis acetylcholine.
The agonistic activity is expressed in pD2 (negative logarithm of the dose which produces 50% of the maximum effect.)

[5] = tested on: patients who have a memory deficiency; settings: intravenous route; cited from earlier work
[6] = tested on: central cholinergic system; settings: cited from earlier work
[7] = 2 mg/kg, sc, 30 min, **p < 0.01
[8] = 2 mg/kg, sc, 60 min, **p < 0.01

## COC(=O)C1=CCCN(C)C1 [Arecoline, HBr, reference compound]
[1]; 3.5 mg/kg, sc, 0 min
  Variation in body temperature: -0.1 °C
[1]; 3.5 mg/kg, sc, 30 min, **p < 0.01
  Variation in body temperature: -1.5 °C
[1]; 3.5 mg/kg, sc, 60 min
  Variation in body temperature: -0.1 °C
[1]; 3.5 mg/kg, sc, 120 min
  Variation in body temperature: +0.2 °C
[1]; 3.5 mg/kg, sc, 180 min
  Variation in body temperature: +0.2 °C

## C#CCON=CC1CCCNC1 (stereo not drawn) [Example 6, 3-piperidine carbaldehyde O-(2-propynyl) oxime]
[2]; O. R. (oral route)
  ED (-1 C): 7 mg/kg
[2]; SC. R. (subcutaneous route)
  ED (-1 C): 7 mg/kg
[1]; 12.5 mg/kg, os, 0 min
  Variation in body temperature: +0.1 °C
[1]; 12.5 mg/kg, os, 30 min, **p < 0.01
  Variation in body temperature: -1.2 °C
[1]; 12.5 mg/kg, os, 60 min, **p < 0.01
  Variation in body temperature: -1.4 °C
[1]; 12.5 mg/kg, os, 120 min
  Variation in body temperature: -0.1 °C
[1]; 12.5 mg/kg, os, 180 min
  Variation in body temperature: +0.1 °C
[1]; 12.5 mg/kg, sc, 0 min
  Variation in body temperature: -0.1 °C
[1]; 12.5 mg/kg, sc, 30 min, **p < 0.01
  Variation in body temperature: -1.6 °C
[1]; 12.5 mg/kg, sc, 60 min, **p < 0.01
  Variation in body temperature: -1.5 °C
[1]; 12.5 mg/kg, sc, 120 min
  Variation in body temperature: -0.2 °C
[1]; 12.5 mg/kg, sc, 180 min
  Variation in body temperature: +0.1 °C
In vivo
  LD50 at 168 h: 100 mg/kg
[3]
  ED50: 12 mg/kg
[4]
  EC50: 4.47 µM

## CON=CC1CCCN(O)C1 (stereo not drawn) [Example 8, 1-hydroxy-3-piperidine carbaldehyde (O-methyloxime)]
[2]; O. R. (oral route)
  ED (-1 C): 2 mg/kg
[2]; SC. R. (subcutaneous route)
  ED (-1 C): 1.6 mg/kg
[1]; 2 mg/kg, sc, 0 min
  Variation in body temperature: +0.1 °C
[1]; [7]
  Variation in body temperature: -1.2 °C
[1]; [8]
  Variation in body temperature: -1.0 °C
[1]; 2.5 mg/kg, os, 0 min
  Variation in body temperature: +0.1 °C
[1]; 2.5 mg/kg, os, 30 min, **p < 0.01
  Variation in body temperature: -1.2 °C
[1]; 2.5 mg/kg, os, 60 min, **p < 0.01
  Variation in body temperature: -1.0 °C
[1]; 2.5 mg/kg, os, 180 min
  Variation in body temperature: +0.2 °C
In vivo
  LD50 at 168 h: 200 mg/kg
[3]
  ED50: 4 mg/kg
[4]
  EC50: 11.2 µM

## CON=CC1CCCNC1 (stereo not drawn) [Example 2, 3-piperidine carbaldehyde O-methyloxime]
[2]; O. R. (oral route)
  ED (-1 C): 1.2 mg/kg
[2]; SC. R. (subcutaneous route)
  ED (-1 C): 1.2 mg/kg
[1]; 2 mg/kg, os, 0 min
  Variation in body temperature: +0.1 °C
[1]; 2 mg/kg, os, 30 min, **p < 0.01
  Variation in body temperature: -1.7 °C
[1]; 2 mg/kg, os, 60 min, **p < 0.01
  Variation in body temperature: -1.4 °C
[1]; 2 mg/kg, os, 120 min
  Variation in body temperature: +0.1 °C
[1]; 2 mg/kg, os, 180 min
  Variation in body temperature: +0.1 °C
[1]; [7]
  Variation in body temperature: -1.7 °C
[1]; [8]
  Variation in body temperature: -1.5 °C
[1]; 2 mg/kg, sc, 180 min
  Variation in body temperature: +0.1 °C
In vivo
  LD50 at 168 h: 125 mg/kg
[3]
  ED50: 3 mg/kg
[4]
  EC50: 0.891 µM

## CON=CC1CCCN(OC(=O)c2ccccc2)C1 (stereo not drawn) [Example 7, 1-benzoyloxy-3-piperidine carbaldehyde (O-methyloxime)]
[2]; O. R. (oral route)
  ED (-1 C): 4 mg/kg
[2]; SC. R. (subcutaneous route)
  ED (-1 C): 4 mg/kg
[1]; 5 mg/kg, os, 0 min
  Variation in body temperature: +0.1 °C
[1]; 5 mg/kg, os, 30 min, **p < 0.01
  Variation in body temperature: -1.2 °C
[1]; 5 mg/kg, os, 60 min, **p < 0.01
  Variation in body temperature: -1.0 °C
[1]; 5 mg/kg, os, 120 min
  Variation in body temperature: +0.1 °C
[1]; 5 mg/kg, os, 180 min
  Variation in body temperature: +0.1 °C
[1]; 5 mg/kg, sc, 0 min
  Variation in body temperature: +0.1 °C
[1]; 5 mg/kg, sc, 30 min, **p < 0.01
  Variation in body temperature: -1.2 °C
[1]; 5 mg/kg, sc, 60 min, **p < 0.01
  Variation in body temperature: -1.1 °C
[1]; 5 mg/kg, sc, 180 min
  Variation in body temperature: +0.1 °C
In vivo
  LD50 at 168 h: > 500 mg/kg
[3]
  ED50: 10 mg/kg
[4]
  EC50: > 100 µM

## COC(=O)C1=CCCN(C)C1 [Arecoline, reference compound]
[2]; O. R. (oral route)
  ED (-1 C): 194 mg/kg
[2]; SC. R. (subcutaneous route)
  ED (-1 C): 3 mg/kg
[5]
  effect on patients who have a memory deficiency: positive effect
[6]; in vivo
  period of action: short-lasting period of action
[6]; oral route
  activity by oral route: very weak activity by oral route
[3]
  ED50: 35 mg/kg
[4]
  EC50: 0.126 µM
